# According to ChEMBL document CHEMBL1132534, “Predicting relative binding free energies of tacrine-huperzine A hybrids as inhibitors of acetylcholinesterase” (J Med Chem, 1999):
# Biological target: Acetylcholinesterase (Homo sapiens) (UniProt P22303)
# Experiment: Inhibitory activity against acetylcholinesterase compared to the IC50 of (-)-9M-HTH
# Acetylcholinesterase (Homo sapiens), sequence (P22303 whole entry): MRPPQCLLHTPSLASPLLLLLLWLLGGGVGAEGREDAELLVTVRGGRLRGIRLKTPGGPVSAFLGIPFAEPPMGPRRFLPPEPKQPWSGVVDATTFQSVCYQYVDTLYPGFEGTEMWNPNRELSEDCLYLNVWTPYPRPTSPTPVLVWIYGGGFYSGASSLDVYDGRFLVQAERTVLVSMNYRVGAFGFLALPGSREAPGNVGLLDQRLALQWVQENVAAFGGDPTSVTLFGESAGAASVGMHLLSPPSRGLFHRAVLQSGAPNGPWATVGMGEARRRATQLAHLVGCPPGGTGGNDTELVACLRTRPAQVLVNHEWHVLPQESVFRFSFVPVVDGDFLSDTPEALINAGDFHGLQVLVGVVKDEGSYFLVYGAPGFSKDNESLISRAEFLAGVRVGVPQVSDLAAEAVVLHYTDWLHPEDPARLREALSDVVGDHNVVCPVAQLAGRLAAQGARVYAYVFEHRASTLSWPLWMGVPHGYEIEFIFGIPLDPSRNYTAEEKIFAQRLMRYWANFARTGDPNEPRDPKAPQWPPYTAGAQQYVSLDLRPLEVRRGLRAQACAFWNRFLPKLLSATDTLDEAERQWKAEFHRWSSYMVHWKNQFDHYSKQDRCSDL
compound,measurement,value
CC1=C[C@@H]2Cc3nc4cc(F)ccc4c(N)c3[C@H](C1)C2,Fold IC50,15
